Experimental data: publication PMC11594329, “Development of LAT1-Selective Nuclear Medicine Therapeutics Using Astatine-211” (International Journal of Molecular Sciences, 2024)

How the values were obtained:
LAT1-Tet/HEK293 cells = assay: Uptake versus LAT1 expression level (Dox-induced) in LAT1-Tet/HEK293 cells; type: cell-based; conditions: collection 30 min after treatment
Description: Each cell line was seeded in 24 wells at 1 × 10^5 cells/mL and allowed to become sub-confluent on the day of the experiment. Cells were washed with PBS (-) (Fujifilm Wako Pure Chemical, Osaka, Japan) prior to the addition of the compound, which was then replaced with uptake buffer. After treating the cells with the same dose, they were collected at predetermined time points. The cell dose was measured using a γ-counter (Wizard^2 2480; PerkinElmer, Waltham, MA, USA), and the protein content of the sample was determined. Protein content was measured using the BCA method, and the dose was corrected using the protein content (Protein Assay BCA kit, Fujifilm Wako Pure Chemical).
Figure 2 Comparison of uptake between the labeled compounds. (A) Relation between uptake ratio and LAT1 expression level. Uptake ratios were compared between LAT1-Tet/HEK293 cells. The Y-axis represents the uptake ratio, and the X-axis is concentration of Doxycycline (Dox) (TaKaRa Bio, Shiga, Japan). The collection time was 30 min after treatment. The expression of LAT1 increased with increasing amounts of Dox. (B) Comparison of uptake in PANC-1 cell line. The collection times were 0.5, 1, 5 and 10 min after treatment.
The PANC-1 cell line was obtained from the RIKEN Cell Bank and maintained in RPMI 1640 medium (Fujifilm Wako Pure Chemical, Osaka, Japan) supplemented with 10% inactivated fetal bovine serum (Thermo Fisher Scientific, Waltham, MA, USA). Mock/HEK293, LAT1/HEK293, and LAT2/HEK203 cells were kindly provided by Dr. Kanai. Cell lines controlling LAT1 expression were constructed using the Tet-on system. HEK293 cells were obtained from the RIKEN Cell Bank and maintained in E-MEM (Fujifilm Wako Pure Chemical) supplemented with 10% inactivated fetal bovine serum (Thermo Fisher Scientific) and non-essential amino acids (Fujifilm Wako Pure Chemical). The expression vectors were purchased from VectorBuilder, Inc. (Kanagawa, Japan). The purified viral particle genes were transfected into HEK293 cells. Drug selection and cloning of the cell line (Tet-LAT1/HEK293) were performed. […]

[1] = Single dose intravenous toxicity study (hematology, pathology) in ICR mice; type: in vivo; conditions: ICR mice male and female, 1 MBq/mouse
Description: Toxicity studies were performed using ^211At-AAMT-O-Me-L, which appeared to have the highest safety profile based on pharmacokinetic results. Labeled material was administered to ICR mice (male and female) at a dose of 1 MBq/mouse with a clear therapeutic effect, and samples were collected the day after administration and 5, 14, and 28 days later for blood and pathological examination.
Development of LAT1-selective nuclear medicine therapeutics
Kazuko Kaneda-Nakashima 1, 2*, Yoshifumi Shirakami 2, Kentaro Hisada 1, Sifan Feng 1, Yuichiro Kadonaga 2, Kazuhiro Ooe 2, Tadashi Watabe 3, Yoshiyuki Manabe 2, 4, Atsushi Shimoyama 2, 4, Masashi Murakami 2, Atsushi Toyoshima 2, Hiromitsu Haba 5, Yoshikatsu Kanai 6, Koichi Fukase 2, 4 […]
S1. Hematological analysis
S1.1. Animal preparation and administration of 211At-AAMT-O-Me-L
This study was conducted in compliance with the Animal Experiment […]
(Hamamatsu, Japan), respectively. […] General condition and body weight were monitored. […]
After the prescribed observation time, blood was collected under anesthesia and the animals were euthanized. […] Red blood cell count (RBC), hemoglobin concentration (Hb), hematocrit (Ht), white blood cell count (WBC), platelet count (platelet), lymphocytes (%Lymph), monocytes (%Mon), and granulocytes (%Gra) were calculated (Supplementary Table S2). […]

COc1ccc(C[C@](C)(N)C(=O)O)cc1[211At] [^211At-AAMT-O-Me-L, (S)-2-amino-3-(3-(astato-^211At)-4-methoxyphenyl)-2-methylpropanic acid]
Uptake ratio versus LAT1 expression (doxycycline concentration) (LAT1-Tet/HEK293 cells): highest increase in uptake
Toxicity findings (blood and pathological examination) ([1]; day after administration): no effects were observed
Toxicity findings (blood and pathological examination) ([1]; five days after administration, subsequently cured): hematopoietic disorders originating from radiation exposure were observed
